Measured values reported in publication PMC10229078, “In vitro effects of lapachol and β-lapachone against Leishmania amazonensis” (Brazilian Journal of Medical and Biological Research, 2023).
Several values for one entry are separate records, joined by “and”; a condition that tells them apart may be missing. Equal values may be shown once.

Key:
[1] = test system: Leishmania amazonensis promastigotes; assay: Viability assay of promastigotes, XTT colorimetric method (LD50); format: cell-based, Leishmania amazonensis (MHOM/BR/1977/LTB0016); settings: 25°C
Experimental: The viability of L. amazonensis (MHOM/BR/1977/LTB0016) promastigotes was evaluated using the XTT colorimetric method, which consists in the XTT salt degradation by the mitochondria forming formazan crystals. Promastigote forms (2×10^7 parasites/mL) from a culture in logarithmic growth phase were incubated with lapachol and β-lapachone diluted in 199 culture medium. The drugs were diluted in series, in a ratio of two, starting from 1/2, on a 96-well cell culture plate (TPP™ test plate, Switzerland). The compounds were tested at concentrations from 204.4 to 0.40 µg/mL (lapachol) and 157.5 to 0.31 µg/mL (β-lapachone). After 24, 48, and 72 h of incubation at 25°C, 100 μL of the XTT solution (500 μg/mL) activated with PMS (50 μg/mL) were added to each well and incubated for 4 h at 37°C. The result was measured by absorbance, determined by spectrophotometry (450/650 nm filter, VersaMax™ ELISA microplate reader, USA). The lethal dose (LD50) was defined as the concentrations of the compounds that reduced survival of L. amazonensis by 50% compared to untreated parasites in culture medium. AmB (1.96 to 0.25 µg/mL) was used as positive control of leishmanicidal activity. The therapeutic selectivity index (TSI CC50/LD50) was calculated by the ratio of toxicity to macrophage vs toxicity to parasites after 24 h incubation ([28]). All assays were performed in triplicate and repeated at least three times.

[2] = test system: Leishmania amazonensis promastigotes; assay: Promastigote growth inhibition, counting in Neubauer chamber (IC50); format: cell-based, Leishmania amazonensis (MHOM/BR/1977/LTB0016)
Experimental: Leishmania growth was evaluated after 24 h of incubation at 25°C with the compounds under the same conditions as previously mentioned. Then, 10 µL of the content of each well was added to a 990 µL (1/100) of formalin solution (2%), and the parasites were counted in a Neubauer chamber. The inhibitory concentration (IC50) of promastigotes was calculated by comparing with untreated promastigotes in culture medium. The results were evaluated by linear regression of the inhibition percentage. The selectivity index (SI CC50/IC50) was calculated by the ratio of toxicity concentration to macrophage vs inhibitory concentration to the parasite growth after 24 h incubation ([27]). All assays were performed in triplicate and repeated at least three times.

[3] = test system: Leishmania amazonensis promastigotes; assay: Change in cell volume and morphology of the parasites (flow cytometry FSC-H/SSC-H, SEM); format: cell-based; settings: 24 h, lapachol 76.62 µg/mL, β-lapachone 1.63 µg/mL; for Percentage population of the lower left quadrant gate (FSC-H/SSC-H, cell volume): H2O2 2 mM, untreated 93.14%
Experimental: Promastigote forms (2×10^7 cells) of L. amazonensis untreated (negative control) or treated with 76.62 µg/mL of lapachol and 1.63 µg/mL of β-lapachone were analyzed to observe changes in cell morphology of the parasites induced by the treatment after 24 h of incubation. […] Subsequently, the parasites were analyzed using a BD FacsCalibur flow cytometer (Becton Dickinson, USA) and CellQuest Pro software (Joseph Trotter, Scripps Research Institute, USA), and 10,000 events were acquired. Dot plots were generated, the forward scatter (FSC-H) parameter was analyzed as presenting a correlation with the cell volume.
Scanning electron microscopy (SEM) also was performed to analyze morphological changes in cell surface topography. After 24 h of treatment, the parasites were centrifuged at 576 g for 10 min, and the samples were fixed in 2.5% glutaraldehyde and 0.1 M sodium cacodylate buffer. Poly-L-lysine was used to promote the adhesion of fixed parasites on coverslips. Promastigotes were dehydrated with increasing ethanol concentrations (30-100%), submitted to critical point drying, and metalized with gold for visualization on a Shimadzu 55-550 (Japan) microscope.

[4] = test system: Leishmania amazonensis promastigotes; assay: Mitochondria membrane potential (ΔΨm), Rh123 flow cytometry; format: cell-based; settings: for Reduction in ΔΨm: lapachol 76.62 µg/mL, β-lapachone 1.63 µg/mL, H2O2 2 mM; for Variation Index (VI) of Rh123 fluorescence, (MT−MC)/MC: lapachol 76.62 μg/mL, β-lapachone 1.63 μg/mL, PC 2 mM
Experimental: The ΔΨm was determined using on BD FacsCalibur™ flow cytometer and CellQuest Pro software, with a total of 10.000 events acquired, using a mitochondrial-specific green-fluorescent dye Rh123 ([31]). Briefly, L. amazonensis (2×10^7 parasites/mL) were incubated with lapachol (76.62 µg/mL) and β-lapachone (1.63 µg/mL) for 1, 4, and 24 h at 25°C. After washed with PBS, the parasites were incubated with 5 μg/mL Rh123 for 15 min. After the incubation time, the cells were washed and suspended in PBS for additional incubation of 30 min for analysis. The percentage of fluorescence of Rh123, was determined by the (MT/MC)*100 equation, with MT representing the median fluorescence of the treated parasites and the MC the median fluorescence of negative controls. Alteration in ΔΨm was quantified using an index of variation (IV) obtained by the equation IV = (MT - MC)/MC, where negative IV values correspond to depolarization of the mitochondrial membrane. H2O2 (2 mM) was used as a positive control ([32]).

[5] = test system: L. amazonensis promastigotes; assay: Externalized phosphatidylserine, annexin V-FITC/PI; format: cell-based, Leishmania amazonensis; settings: lapachol 76.62 µg/mL, β-lapachone 1.63 µg/mL; for Annexin labeling (AnV+, PI-): 4 h; for Annexin labeling (AnV+, PI-), change on longer incubation: 24 h
Experimental: […] After treatment, the cells were centrifuged (901 g for 10 min) at room temperature and washed in PBS. According to the manufacturer's instructions, annexin V-FITC and PI (Sigma-Aldrich) were added. Data were acquired using the BD FacsCalibur™ flow cytometer (FL1 vs FL2) and CellQuest Pro software, with a total of 10,000 events acquired for analysis of results.

[6] = test system: L. amazonensis amastigotes; assay: Activity on intracellular amastigotes in peritoneal macrophages (infection index); settings: 24 h; for Inhibition of infection rate of amastigotes (infection reduction): vs untreated infected macrophages
Experimental: The activity of lapachol and β-lapachone on intracellular amastigotes was made on peritoneal macrophages (5×10^5 per well). Cells were seeded onto round glass coverslips within 24-well plates in RPMI 1640 medium and incubated for 2 h at 37°C in 5% CO2. After that, the proportion of 6 parasites (L. amazonensis) per macrophage were added, and cultures were incubated for 4 h at 37°C in 5% CO2. Free parasites were removed by washing with RPMI 1640 medium. The infected macrophages were incubated with lapachol (82.28, 41.14, and 20.57 µg/mL) and β-lapachone (3.26, 1.63, and 0.815 µg/mL) for 24 h at 37°C. After the incubation time, the coverslips were removed, washed, stained with Fast Panoptic, and fixed on glass slides with Entellan. […] The experiments were done twice in triplicate, and treated uninfected cells were used as the cytotoxicity control and non-treated infected cells were used as the positive control of infection. The number of intracellular amastigotes was determined by counting 200 macrophages by concentration in an optical microscope (binocular biological microscope, mod. BA310E LED, Motic, Spain). The infection index was calculated by multiplying the percentage of infected macrophages by the number of parasites per macrophages ([29]).

[7] = Leishmania amazonensis, Macrophage, read-out: Inhibition of infection rate of amastigotes (infection reduction)

CC1(C)CCC2=C(O1)c1ccccc1C(=O)C2=O [β-lapachone, 2,2-dimethyl-3,4-dihydrobenzo[h]chromene-5,6-dione]
Promastigotes LD50 ([1]; 24 h incubation): 0.65 µg/mL and 0.65 ± 0.18 µg/mL | Promastigotes LD50 ([1]; 24 h incubation, listed as β-lapachone (2)): 0.65 ± 0.18 µg/mL | Promastigotes LD50 ([1]; 48 h incubation): 1.24 µg/mL and 1.24 ± 0.19 µg/mL | Promastigotes LD50 ([1]; 72 h incubation): 0.71 µg/mL and 0.71 ± 0.03 µg/mL | IC50 ([2]; Leishmania amazonensis, 24 h, value in µM): 6.73 µM | IC50 ([2]; Leishmania amazonensis, 24 h incubation, growth inhibition by counting): 1.63 ± 0.09 µg/mL | Morphological changes of promastigotes (SEM, microscopy) [3]: loss of cell volume, rounder shape, flagellar alterations, and cellular shrinkage | Percentage population of the lower left quadrant gate (FSC-H/SSC-H, cell volume) [3]: 62.35% | Reduction in ΔΨm ([4]; 1 h): 15% | Variation Index (VI) of Rh123 fluorescence, (MT−MC)/MC ([4]; 1 h): -0.15 | Reduction in ΔΨm ([4]; 4 h): 54% | Variation Index (VI) of Rh123 fluorescence, (MT−MC)/MC ([4]; 4 h): -0.54 | Reduction in ΔΨm ([4]; 24 h): 98% | Variation Index (VI) of Rh123 fluorescence, (MT−MC)/MC ([4]; 24 h): -0.98 | Annexin labeling (AnV+, PI-) [5]: 9.03% | Annexin labeling (AnV+, PI-), change on longer incubation [5]: not possible to observe the increase | inhibition at 0.815 µg/mL [6, 7]: 80.2% | inhibition at 1.63 µg/mL [6, 7]: 83.2% | inhibition at 3.26 µg/mL [6, 7]: 78.5%

4-hydroxy-3-(3-methylbut-2-enyl)naphthalene-1,2-dione [lapachol]
Promastigotes LD50 ([1]; 24 h incubation): 75.60 µg/mL | Promastigotes LD50 ([1]; 24 h incubation, listed as Lapachol (1)): 75.60 ± 6.12 µg/mL | Promastigotes LD50 ([1]; 48 h incubation): 72.82 µg/mL and 72.82 ± 12.99 µg/mL | Promastigotes LD50 ([1]; 72 h incubation): 58.85 µg/mL and 58.85 ± 6.43 µg/mL | IC50 ([2]; 24 h, value in µM): 316 µM | Promastigotes IC50 ([2]; 24 h incubation, growth inhibition by counting): 76.62 ± 1.21 µg/mL | Morphological changes of promastigotes (SEM, microscopy) [3]: loss of cell volume, rounder shape, flagellar alterations, and cellular shrinkage | Percentage population of the lower left quadrant gate (FSC-H/SSC-H, cell volume) [3]: 82.82% | Reduction in ΔΨm ([4]; 1 h): 44% | Variation Index (VI) of Rh123 fluorescence, (MT−MC)/MC ([4]; 1 h): -0.44 | Reduction in ΔΨm ([4]; 4 h): 69% | Variation Index (VI) of Rh123 fluorescence, (MT−MC)/MC ([4]; 4 h): -0.69 | Reduction in ΔΨm ([4]; 24 h): 30% | Variation Index (VI) of Rh123 fluorescence, (MT−MC)/MC ([4]; 24 h): -0.30 | Annexin labeling (AnV+, PI-) [5]: 8.57% | Annexin labeling (AnV+, PI-), change on longer incubation [5]: not possible to observe the increase | Inhibition of infection rate of amastigotes (infection reduction) ([6]; 20.57 µg/mL): 34.95% | Inhibition of infection rate of amastigotes (infection reduction) ([6]; 82.28 µg/mL): 83.11%
